Reference: paper PMC3411110, “AdpA, key regulator for morphological differentiation regulates bacterial chromosome replication” (Open Biology, 2012)

Assays:
AdpA (AdpAHis6) [1] = target: T1, AdpA (AdpAHis6) (Streptomyces coelicolor, UniProt Q9L062); experiment: SPR of AdpA on immobilised oriC DNA; glutaraldehyde cross-linking of AdpA-oriC complexes; conditions: 3 mM ATP in SPR, increasing ATP in cross-linking with 100 nM AdpA; HBS200 buffer pH 7.4, 10 mM MgOAc; 283-bp oriC fragment; inhibits DNA binding; direct ATP binding not measured
T1 sequence (Q9L062 entry or part of it): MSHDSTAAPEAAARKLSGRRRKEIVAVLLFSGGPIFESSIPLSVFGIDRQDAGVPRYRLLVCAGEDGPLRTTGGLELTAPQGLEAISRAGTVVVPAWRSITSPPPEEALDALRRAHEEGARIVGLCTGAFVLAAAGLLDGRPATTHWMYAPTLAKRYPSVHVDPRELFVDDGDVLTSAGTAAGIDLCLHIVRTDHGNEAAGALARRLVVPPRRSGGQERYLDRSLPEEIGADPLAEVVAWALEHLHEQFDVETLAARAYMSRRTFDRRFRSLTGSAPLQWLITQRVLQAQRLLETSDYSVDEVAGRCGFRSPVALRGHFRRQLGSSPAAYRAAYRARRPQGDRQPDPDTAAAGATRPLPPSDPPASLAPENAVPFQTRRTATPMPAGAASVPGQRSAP

DnaA (DnaAHis6) = DnaA (DnaAHis6) (Streptomyces coelicolor, UniProt P27902); experiment: SPR of DnaA on immobilised oriC DNA with and without ATP; conditions: 3 mM ATP; HBS200 buffer pH 7.4, 10 mM MgOAc; 283-bp oriC fragment; promotes DNA binding; direct ATP binding not measured
DnaA (DnaAHis6), sequence (P27902 whole entry, the tested form may be a part): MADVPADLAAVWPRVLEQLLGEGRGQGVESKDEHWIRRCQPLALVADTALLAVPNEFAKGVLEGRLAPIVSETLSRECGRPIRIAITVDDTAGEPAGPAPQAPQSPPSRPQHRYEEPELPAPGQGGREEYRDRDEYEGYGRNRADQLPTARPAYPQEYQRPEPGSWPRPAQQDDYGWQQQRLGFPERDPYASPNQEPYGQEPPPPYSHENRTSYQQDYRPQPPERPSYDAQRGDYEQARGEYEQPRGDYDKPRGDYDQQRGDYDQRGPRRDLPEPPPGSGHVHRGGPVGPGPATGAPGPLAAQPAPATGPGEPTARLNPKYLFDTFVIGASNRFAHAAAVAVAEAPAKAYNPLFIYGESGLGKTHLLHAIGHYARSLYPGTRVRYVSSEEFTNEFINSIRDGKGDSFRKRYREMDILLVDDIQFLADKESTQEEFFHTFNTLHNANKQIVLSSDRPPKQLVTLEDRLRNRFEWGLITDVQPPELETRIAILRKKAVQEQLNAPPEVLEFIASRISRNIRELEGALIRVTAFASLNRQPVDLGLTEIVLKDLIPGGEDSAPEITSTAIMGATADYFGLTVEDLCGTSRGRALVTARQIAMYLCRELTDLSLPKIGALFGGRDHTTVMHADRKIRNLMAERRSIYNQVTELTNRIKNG

AdpA (AdpAHis6) [2] = target: T1, AdpA (AdpAHis6); experiment: effect on AdpA-oriC complex formation; conditions: inhibits DNA binding; direct ADP binding not measured

SMILES: Nc1ncnc2c1ncn2[C@@H]1O[C@H](COP(=O)(O)OP(=O)(O)OP(=O)(O)O)[C@@H](O)[C@H]1O [ATP]
- SPR of AdpA on immobilised oriC DNA; glutaraldehyde cross-linking of AdpA-oriC c (AdpA (AdpAHis6) [1]): ATP at the same concentration used for DnaA-binding experiments nearly completely abolished binding of AdpA
- SPR of DnaA on immobilised oriC DNA with and without ATP (DnaA (DnaAHis6)): binds DnaA box(es), particularly weak ones, more efficiently in the presence of ATP

SMILES: Nc1ncnc2c1ncn2[C@@H]1O[C@H](COP(=O)(O)OP(=O)(O)O)[C@@H](O)[C@H]1O [ADP]
- effect on AdpA-oriC complex formation (AdpA (AdpAHis6) [2]): a similar effect was also observed in the presence of ADP
